Read-outs that look alike come from different tables or passages of the source.
Assays:
[1] = PROTAC-CID inducible EYFP gene activation, flow cytometry; assay type: cell-based, human; settings: Homo sapiens, HEK-293T, FIG. 13A
Method: (§1) Fluorescence assay using flow cytometry analysis. Cells were treated with 0.05% Trpsin EDTA (Thermo Fisher Scientific no. 25300054) or TrypLE (Thermo Fisher Scientific no. 12605028) after transfection and centrifuged at 3000 g for 5 min. Supernatant was removed and the cell pellet was resuspended with 200 μL phosphate buffered saline (PBS) without calcium and magnesium (Thermo Fisher Scientific no. 10010023). Cells were transferred into 12×75 mm flow tubes (Global Scientific no. 110410). Cells were analyzed by MA900 flow cytometry (SONY). 405 nm laser (FL6 filter) was used for testing the BFP channel. 488 nm (FL1 filter) was used for testing the EYFP and GFP channel. Automated alignment using Automatic Setup Beads kit (SONY no. LE-B3001) is performed before running samples. In FIGS. 3A, 3B, and 17, experiments were performed under 2% FSC, 17% BSC, 24% FL1. In FIG. 18, experiments were performed under 2% FSC, 17% BSC, 27% FL1. All the other experiments were performed under 2% FSC, 17% BSC, 24% FL1 and 27% FL6. Flow cytometry data was processed and analyzed by FlowJo 10. Events were first gated with forward scatter-Area (FSC-A) and side scatter-Area (SSC-A) to select viable cells and remove the debris and dead cells. Cells were further gated with FSC-A and FSC-Height (FSC-H) for selecting single cells. The mean intensity of the reporter fluorescent protein (BFP and EYFP) in viable and single cell populations were calculated by FlowJo 10 as the mean of FL6-A and FL1-A. When calculating the fold change of relative fluorescence units (RFU), the relative fluorescence units of EYFP was calculated by dividing the mean of fluorescence intensity of EYFP with the mean of BFP fluorescence intensity for normalization as the following formula: […]
(§2) Next, the mean of the normalized relative fluorescence units of induced group were divided by the value of control group for calculating the fold change as the following formula: […]
(§3) Transfection and microscopy. HEK293T cells (American Type Culture Collection, no. CRL-3216) were cultured with high-glucose Dulbecco's modified Eagle's medium (DMEM) (Thermo Fisher Scientific no. 10569044) with 10% fetal bovine serum (FBS) (Thermo Fisher Scientific no. 10437028) and 1×penicillin-streptomycin (Thermo Fisher Scientific no. 15140122) at 37° C. with 5% CO2. Except for the data in FIGS. 3C, 3E, and 3H, cells were plated into 96 well plate (Corning no. 3598) and transfected by Polyethyleneimine Max (PEI Max) (Polysciences no. 24765-1). 1.5 μL PEI Max (1 mg/mL, pH=7.1) and 100 μl DMEM were mixed with plasmids to be slowly dropped into the cell medium after 30 mins of incubation. Medium was changed 12 hours post-transfection. The inductive small molecules, including Rapamycin (STEM CELL technologies no. 73362), dTAG-13 (TOCRIS no. 6605/5), dTAG^V-1 (TOCRIS no. 6744-5), dBRD9 (TOCRIS no. 6606/5), dTRIM24 (TOCRIS no. 6607/5), MZ1 (TOCRIS no. 6154/5), AT1 (TOCRIS no. 6356/5), TL13-12 (TOCRIS no. 6744/5), TL13-112 (TOCRIS no. 6745/5), dTAG-7 (TOCRIS no. 69125), ZXH3-26 (TOCRIS no. 6713/5) and ABA (GoldBio no. A-050-100), dissolved in Dimethyl sulfoxide (DMSO) (Sigma, no. D8418) were added. For the microscopy observation, the images were taken by Microscopy EVOS (Life Technologies) and processed by ImageJ (Schneider et al., 2012). If not otherwise noted, 60 ng of each plasmid were used for each sample.
(§4) Step-by-step fluorescence protein activation assay protocol. Reagents: • 1. PEI Max (Polysciences no. 24765-1) • 2. DMEM, high glucose, GlutaMAX™ Supplement, pyruvate (Thermo Fisher Scientific no. 10569044) • 3. Penicillin-Streptomycin (10,000 U/mL) (Thermo Fisher Scientific no. 15140122) • 4. Fetal Bovine Serum 500ML (FBS) (Thermo Fisher Scientific no. 10437028) • 5. TrypLE™ Express Enzyme (1×), phenol red (Thermo Fisher Scientific no. 12605068) • 6. PBS pH=7.4 (Thermo Fisher Scientific no. 10010023) • 7. Sony sorting chip […] for MA900 (SONY no. LE-C3210) • 8. Automatic Setup Beads kit (SONY no. LE-B3001) • 9. […]

[2] = tested on: pUAS-1-driven EYFP expression in HEK293T cells transfected with GAL4- and VPR-fused PROTAC target protein / E3 ubiquitin ligase; assay: as above; assay type: cell-based, human; settings: for Bottom (best-fit value) / Span (best-fit value) / Top (best-fit value): Table 4 nonlinear regression of EYFP activation; for Bottom (best-fit value) / Span (best-fit value) / Top (best-fit value) / Hillslope (best-fit value) / logEC50 (best-fit value): FIG. 13A; for Hillslope (best-fit value) / logEC50 (best-fit value): Table 4 nonlinear regression; for increase in EYFP expression / EYFP induction compared to DMSO-treated controls: bromodomain-VPR fusion co-transfected with GAL4-VHL, FIG. 1C 5 μM dTRIM24, FIG. 1D 100 nM MZ1 or 1 μM AT1
Method: as §1, §2, §3, §4

[3] = tested on: pUAS-2-Fluc expression in HEK293T cells with cognate or non-cognate GAL4/VPR protein pairs; assay: Orthogonality analysis, Firefly luciferase (Fluc) luminescence; assay type: cell-based, human; settings: seven different protein pairs, 2 days, FIGS. 2A and 14
Method: Luciferase luminescence intensity measurement. Before transfection, HEK293T cells were seeded in clear bottom 96 well assay plates (Corning no. 3610) with 100 μL DMEM with 10% FBS and 1× penicillin-streptomycin at 37° C. with 5% CO2. When cells reached 50% confluency, 1.5 μL PEI Max (1 mg/mL, pH=7.1) and 100 μL DMEM were mixed with 60 ng of each plasmid (GAL4 and VPR fused target protein or E3 ubiquitin ligase, pUAS-2-Fluc) for 30 min at room temperature. Mixture was transferred into cells gently. 12 h after transfection, medium was changed, and the inductive small molecules were supplied. 2-days post induction, 120 μL of medium was aspirated from each well containing 200 μL of medium, leaving 80 μL of medium per well, then treated with 40 μL of lysis buffer (500 mM DTT (Sigma no. D0632), 10 mM coenzyme A (RPI no. C95275), 100 mM ATP (Thermo Fisher Scientific no. R1441), 80 mg/mL D-luciferin (GoldBio no. LUCNA-100), Triton lysis buffer (0.1082 M Tris-HCl, 0.0419 M Tris-Base, 75 mM NaCl, 3 mM MgCl2)). Plate was shaken with 20 seconds in “Orbital” mode with frequency of 432 rpm and Amplitude of 1 mm to lysis the cells. Recording the luminescence by plate reader Infinite M200 (TECAN) with 1000 ms integration time using Megellan v1.7 (TECAN). Mean of luciferase luminescence relative light units (RLU) was calculated by the average of three biological replications. Normalized RLU were calculated by dividing RLU of the tested group with mean of RLU of DMSO treated control group for normalization: […]

[4] = target: GAL4-FKBP12^F36V (human); assay: cell-based or functional assay
[5] = Table 4 nonlinear regression, Prism 9 [Agonist] vs. response variable slope (four parameters), no unit in table (the source gives nM), read-out: EC50 (best-fit value)
[6] = dose-response, read-out: EC50 for gene activation

## CC1=CC(=O)CC(C)(C)[C@@]1(O)/C=C/C(C)=C\C(=O)O [ABA, abscisic acid]
[1]; [5]
  EC50: 763 nM
[1]; [6]
  EC50: 763 nM
[2]
  Bottom (best-fit value): 1.587
  Span (best-fit value): 77.84
  Top (best-fit value): 79.43
  Hillslope (best-fit value): 2.083
  logEC50 (best-fit value): 2.882

## CC(=O)N[C@H](C(=O)N1C[C@H](O)C[C@H]1C(=O)NCc1ccc(-c2scnc2C)cc1)C(C)(C)SCCCCCCNC(=O)C[C@@H]1N=C(c2ccc(Cl)cc2)c2c(sc(C)c2C)-n2c(C)nnc21 [AT1]
[3]
  orthogonality: Fluc activation with cognate vs non-cognate protein partners: interact with the same protein pairs

## Nc1cccc2c1CN(C1CCC(=O)NC1=O)C2=O (centres unmarked) [Lenalidomide]
[2]; CRBN-VPR with GAL4 fused IKZF1 or IKZF3, Lenalidomide 1 μM vs 100 nM dTAG-13, 2 days, FIGS. 11D-11E
  inducible gene activation efficiency compared with dTAG-13 PROTAC-CID: significantly less efficient than the dTAG-13 PROTAC-CID system

## COc1cc(N2CCN(CCOCCOCCNC(=O)CNc3cccc4c3C(=O)N(C3CCC(=O)NC3=O)C4=O)CC2)ccc1Nc1ncc(Cl)c(Nc2ccccc2S(=O)(=O)C(C)C)n1 (centres unmarked) [TL13-12]
[3]
  orthogonality: Fluc activation with cognate vs non-cognate protein partners: interact with the same protein pairs

## Cc1cc(Nc2ncc(Cl)c(Nc3ccccc3S(=O)(=O)C(C)C)n2)c(OC(C)C)cc1C1CCN(CCOCCOCCNC(=O)CNc2cccc3c2C(=O)N(C2CCC(=O)NC2=O)C3=O)CC1 (centres unmarked) [TL13-112]
[3]
  orthogonality: Fluc activation with cognate vs non-cognate protein partners: interact with the same protein pairs

## CCCOc1cccc(Oc2cc3c(cc2NS(=O)(=O)c2cccc(C(=O)NCCOCCOCCOCC(=O)N[C@H](C(=O)N4C[C@H](O)C[C@H]4C(=O)NCc4ccc(-c5scnc5C)cc4)C(C)(C)C)c2)n(C)c(=O)n3C)c1 [dTRIM24]
[1]; [5]
  EC50: 6350 nM
[1]; [6]
  EC50: 6300 nM
[2]; HEK293T transfected with GAL4-VHL, TRIM24^BD-VPR, BRD4^BD2-VPR and reporter plasmid, FIG. 2E: dTRIM24, MZ1 100 nM
  grades of EYFP intensity: 37 fold
[2]
  Bottom (best-fit value): 0.5037
  Span (best-fit value): 1430
  Top (best-fit value): 1431
  Hillslope (best-fit value): 1.463
  logEC50 (best-fit value): 3.803
[2]; at 5 μM
  fold change gene activation activity: more than 500 fold
[2]; below 1 μM
  fold change in EYFP expression: less than 100 fold

## CRBN-VPR
[4]
  EC50 of the inducer dTAG-13 for EYFP gene activation (dose-response, FIG. 13A): 53 nM
  fold increase in EYFP expression with dTAG-13: > 100 fold

## VHL-VPR (from UniProt P40337 1-213)
[4]
  EC50 of the inducer dTAG^V-1 for EYFP gene activation (dose-response, FIG. 13A): 228 nM

B1: BRD4^BD2-VPR: Fusion protein of VPR with bromodomain BD2 of BRD4 (SEQ ID NO: 7) (protein)
chain: MPKKKRKVGGGSPGGGGSSKVSEQLKCCSGILKEMFAKKHAAYAWPFYKPVDVEALGLHDYCDIIKHPMDMSTIKSKLEAREYRDAQEFGADVRLMFSNCYKYNPPDHEVVAMARKLQDVFEMRFAKMPDGGGSRADPKKKRKVEASGSGRADALDDFDLDMLGSDALDDFDLDMLGSDALDDFDLDMLGSDALDDFDLDMLINSRSQYLPDTDDRHRIEEKRKRTYETFKSIMKKSPFSGPTDPRPPPRRIAVPSRSSASVPKPAPQPYPFTSSLSTINYDEFPTMVFPSGQISQASALAPAPPQVLPQAPAPAPAPAMVSALAQAPAPVPVLAPGPPQAVAPPAPKPTQAGEGTLSEALLQLQFDDEDLGALLGNSTDPAVFTDLASVDNSEFQQLLNQGIPVAPHTTEPMLMEYPEAITRLVTGAQRPPDPAPAPLGAPGLPNGLLSGDEDFSSIADMDFSALLGSGSGSRDSREGMFLPKPEAGSAISDVFEGREVCQPKRIRPFHPPGSPWANRPLPASLAPTPTGPVHEPVGSLTPAPVPQPLDPAPAVTPEASHLLEDPDEETSQAVKALREMADTVIPQKEEAAICGQMDLSHPPPRGHLDELTTTLESMTEDLNLDSPLTPELNEILDTFLNDECLLHAMHISTGLSIFDTSLFTSGGGSKRPAATKKAGQAKKKKSR
[2]
  increase in EYFP expression / EYFP induction compared to DMSO-treated controls: 441 fold

B2: TRIM24BD-VPR: Fusion protein of VPR with the bromodomain of TRIM24 (SEQ ID NO: 4) (protein)
chain: MPKKKRKVGGGSPGGGGSPNEDWCAVCQNGGELLCCEKCPKVFHLSCHVPTLTNFPSGEWICTFCRDLSKPEVEYDCDAPSHNSEKKKTEGLVKLTPIDKRKCERLLLFLYCHEMSLAFQDPVPLTVPDYYKIIKNPMDLSTIKKRLQEDYSMYSKPEDFVADFRLIFQNCAEFNEPDSEVANAGIKLENYFEELLKNLYPGGGSRADPKKKRKVEASGSGRADALDDFDLDMLGSDALDDFDLDMLGSDALDDFDLDMLGSDALDDFDLDMLINSRSQYLPDTDDRHRIEEKRKRTYETFKSIMKKSPFSGPTDPRPPPRRIAVPSRSSASVPKPAPQPYPFTSSLSTINYDEFPTMVFPSGQISQASALAPAPPQVLPQAPAPAPAPAMVSALAQAPAPVPVLAPGPPQAVAPPAPKPTQAGEGTLSEALLQLQFDDEDLGALLGNSTDPAVFTDLASVDNSEFQQLLNQGIPVAPHTTEPMLMEYPEAITRLVTGAQRPPDPAPAPLGAPGLPNGLLSGDEDFSSIADMDFSALLGSGSGSRDSREGMFLPKPEAGSAISDVFEGREVCQPKRIRPFHPPGSPWANRPLPASLAPTPTGPVHEPVGSLTPAPVPQPLDPAPAVTPEASHLLEDPDEETSQAVKALREMADTVIPQKEEAAICGQMDLSHPPPRGHLDELTTTLESMTEDLNLDSPLTPELNEILDTFLNDECLLHAMHISTGLSIFDTSLFTSGGGSKRPAATKKAGQAKKKKSR
[2]
  increase in EYFP expression / EYFP induction compared to DMSO-treated controls: 592 fold

From patent US20250382631A1, “PROTAC-CID SYSTEMS FOR USE IN MULTIPLEX GENE REGULATION” (William Marsh Rice University, priority 2022, published 2025)
